Data: US8273776B2, “Biphenyl oxadiazole derivatives as sphingosine-1-phosphate receptors modulators” (Allergan, Inc, priority 2010, dated 2012)

Target: T1, human S1P1 receptor (Homo sapiens, UniProt P21453)
T1 construct: expressed in transfected cells; membranes used
Experiment: GTP γ35S binding assay for S1P1 activity
Type: biochemical
Conditions: for % S1P1 STIMULATION @ 5 μM (%): GTPγ^35S binding, compound at 5 μM; for EC50: membranes of cells stably expressing the S1P1 receptor, test compounds 0.08 to 5,000 nM, read-out: S1P1 GTPγ^35S EC50
Method: Compounds were synthesized and tested for S1P1 activity using the GTP γ^35S binding assay. These compounds may be assessed for their ability to activate or block activation of the human S1P1 receptor in cells stably expressing the S1P1 receptor.
GTP γ^35S binding was measured in the medium containing (mM) HEPES 25, pH 7.4, MgCl2 10, NaCl 100, dithitothreitol 0.5, digitonin 0.003%, 0.2 nM GTP γ^35S, and 5 μg membrane protein in a volume of 150 μl. Test compounds were included in the concentration range from 0.08 to 5,000 nM unless indicated otherwise. Membranes were incubated with 100 μM 5′-adenylylimmidodiphosphate for 30 min, and subsequently with 10 μM GDP for 10 min on ice. Drug solutions and membrane were mixed, and then reactions were initiated by adding GTP γ^35S and continued for 30 min at 25° C. Reaction mixtures were filtered over Whatman GF/B filters under vacuum, and washed three times with 3 mL of ice-cold buffer (HEPES 25, pH7.4, MgCl2 10 and NaCl 100). Filters were dried and mixed with scintillant, and counted for ^35S activity using a β-counter. Agonist-induced GTP γ^35S binding was obtained by subtracting that in the absence of agonist. Binding data were analyzed using a non-linear regression method. In case of antagonist assay, the reaction mixture contained 10 nM S1P in the presence of test antagonist at concentrations ranging from 0.08 to 5000 nM.

T1 sequence (P21453 whole entry): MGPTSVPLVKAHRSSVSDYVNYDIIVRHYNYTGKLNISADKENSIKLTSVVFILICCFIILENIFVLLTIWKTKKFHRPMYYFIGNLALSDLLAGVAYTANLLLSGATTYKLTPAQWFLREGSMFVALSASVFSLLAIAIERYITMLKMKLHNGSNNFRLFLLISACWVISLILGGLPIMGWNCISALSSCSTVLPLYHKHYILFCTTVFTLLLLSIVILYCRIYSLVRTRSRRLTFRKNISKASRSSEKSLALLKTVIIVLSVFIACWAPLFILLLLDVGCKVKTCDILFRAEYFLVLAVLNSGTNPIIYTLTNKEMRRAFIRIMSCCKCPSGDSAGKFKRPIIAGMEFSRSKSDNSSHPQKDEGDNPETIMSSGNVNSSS

Q: Which “% S1P1 STIMULATION @ 5 μM (%)” value does the source give for `CC(C)Oc1ccc(-c2nc(-c3ccccc3-c3cccc(OCCCO)c3)no2)cc1C#N` [Compound 1, 5-{3-[3′-(3-Hydroxy-propoxy)-biphenyl-2-yl]-[1,2,4]oxadiazol-5-yl}-2-isopropoxy-benzonitrile] here?
A: 76%

Q: And the EC50?
A: 1420 nM

Q: Which “% S1P1 STIMULATION @ 5 μM (%)” value does the source give for `O=C(O)CNCCCOc1cccc(-c2ccccc2-c2noc(-c3ccc(-c4cccc(F)c4)c(C(F)(F)F)c3)n2)c1` [Compound 2, (3-{2′-[5-(3′-Fluoro-2-trifluoromethyl-biphenyl-4-yl)-[1,2,4]oxadiazol-3-yl]-biphenyl-3-yloxy}-propylamino)acetic acid] here?
A: 96%

Q: And the EC50?
A: 552 nM

Q: Which “% S1P1 STIMULATION @ 5 μM (%)” value does the source give for `CC(C)Oc1ccc(-c2nc(-c3ccccc3-c3cccc(OCCCNCC(=O)O)c3)no2)cc1C#N` [Compound 3, (3-{2′-[5-(3-Cyano-4-isopropoxy-phenyl)-[1,2,4]oxadiazol-3-yl]-biphenyl-3-yloxy}-propylamino)-acetic acid] here?
A: 85%

Q: And the EC50?
A: 82 nM
